Laboratory results published in the supplement of paper PMC10307832.

Legend:
Assay in all cases: relative viability (nuclei count vs DMSO), 5 days (fraction); higher = more cells survive
[1] = compound: C1=CC2=C(C=C(C(=C2N=C1)O)N=NC3=CC4=C(C=C3)C=C(C=C4)S(=O)(=O)O)S(=O)(=O)O + CC1(C)CCC(c2ccc(Cl)cc2)=C(CN2CCN(c3ccc(C(=O)NS(=O)(=O)c4ccc(N[C@H](CCN5CCOCC5)CSc5ccccc5)c(S(=O)(=O)C(F)(F)F)c4)cc3)CC2)C1 [Navitoclax] (partner 0.5 µM)
How it was run: (§1)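 Dosing by pin tool came one day after lung cancer cell lines were seeded in 1536-well plates, using either one drug or a fixed anchor-drug dose plus five library-drug doses (not always all listed) in √10 steps. After 5 days, nuclei were counted on 4× images. Relative viability is treated-well nuclei count divided by vehicle-well nuclei count, and values are medians of duplicate plates.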

[2] = compound: C1=CC2=C(C=C(C(=C2N=C1)O)N=NC3=CC4=C(C=C3)C=C(C=C4)S(=O)(=O)O)S(=O)(=O)O + COc1cccc2cc(-c3nc([C@H]4CC[C@H](C(=O)O)CC4)n4ncnc(N)c34)[nH]c12 [OSI-027] (partner 0.5 µM)
How it was run: as §1

[3] = compound: O=C(NC1CCNCC1)c1n[nH]cc1NC(=O)c1c(Cl)cccc1Cl [AT-7519] + CC1(C)CCC(c2ccc(Cl)cc2)=C(CN2CCN(c3ccc(C(=O)NS(=O)(=O)c4ccc(N[C@H](CCN5CCOCC5)CSc5ccccc5)c(S(=O)(=O)C(F)(F)F)c4)cc3)CC2)C1 [Navitoclax] (partner 0.5 µM)
How it was run: as §1

[4] = compound: O=C(NC1CCNCC1)c1n[nH]cc1NC(=O)c1c(Cl)cccc1Cl [AT-7519] + CS(=O)(=O)CCNCc1ccc(-c2ccc3ncnc(Nc4ccc(OCc5cccc(F)c5)c(Cl)c4)c3c2)o1 [Lapatinib] (partner 2 µM)
How it was run: as §1

Cell Line UMC-11 has a relative viability ([1]; first compound 0.08 µM) of 0.261, a relative viability ([1]; first compound 0.253 µM) of 0.334 and a relative viability ([1]; first compound 0.8 µM) of 0.314. For the same cell line, the relative viability ([1]; first compound 2.53 µM) was 0.293, the relative viability ([1]; first compound 8 µM) was 0.333 and the relative viability ([2]; first compound 0.08 µM) was 0.492. For the same cell line, the relative viability ([2]; first compound 0.253 µM) was 0.435, the relative viability ([2]; first compound 0.8 µM) was 0.458 and the relative viability ([2]; first compound 2.53 µM) was 0.47. For the same cell line, the relative viability ([2]; first compound 8 µM) was 0.485, the relative viability ([3]; first compound 0.01 µM) was 0.291 and the relative viability ([3]; first compound 0.03162 µM) was 0.306. For the same cell line, the relative viability ([3]; first compound 0.3162 µM) was 0.222, the relative viability ([3]; first compound 1 µM) was 0.134 and the relative viability ([4]; first compound 0.01 µM) was 1.18. For the same cell line, the relative viability ([4]; first compound 0.03162 µM) was 0.988, the relative viability ([4]; first compound 0.3162 µM) was 0.519 and the relative viability ([4]; first compound 1 µM) was 0.252.
